# Results taken from patent EP4692094A1 (Beijing Konruns Pharmaceutical Co., Ltd., priority 2023, dated 2024).
# Legend:
# KAT5 = biological target: T1, KAT5 (Homo sapiens, UniProt Q92993); test: Enzymatic activity assay for KAT5 acetyltransferase (TR-FRET, histone substrate H4); format: biochemical; details: KAT5 1.5 nM, H4 200 nM, AcCOA 2 µM
# T1 construct: purchased signalChem K314-380G
# Description: The acetylation effects of KAT6B on histone substrate H3, as well as KAT5, KAT7, and KAT8 on histone substrate H4, were determined using the TR-FRET (time-resolved fluorescence resonance energy transfer) method. The determination was performed according to experimental procedures similar to those in "Pharmacological Experiment I": 1.2 Preparation of compounds: The compounds prepared in the examples were each dissolved in dimethylsulfoxide to give solutions at a concentration of 10 mmol/L. • 1) The compounds in the examples were each diluted from 10 mmol/L stock solution to 0.2 mmol/L, i.e., 1 µL of the compound was added to 49 µL of DMSO, and 3-fold dilution was performed to give 10 concentrations. • 2) 50 nL of the test compounds were transferred to 384 reaction plates using Echo, two replicates for each compound, and the plates were centrifuged at a rotation speed of 1000 rpm for 1 min, the final concentration of dimethylsulfoxide (DMSO) being 0.5%. […]
# For KAT8: • 3) 2.5 µL of the KAT8 enzyme solution at a final concentration of 10 nM was added to the 384 reaction plates in step 2), and the plates were centrifuged at 1000 rpm for 1 min and incubated at 25 °C for 10 min. • 4) 2.5 µL of […] at a final concentration of 300 nM and an AcCOA (acetyl-CoA) reaction solution at a final concentration of 2 µM were added to the 384 reaction plates in step 3), and the plates were centrifuged at a rotation speed of 1000 rpm for 1 min and incubated at 25 °C for 90 min. • 5) 5 µL of Eu-Ab& Ulight-SA detection solution was separately added to the 384 reaction plates in step 4) of the 4 groups described above, and the plates were centrifuged at 1000 rpm for 1 min and incubated at 25 °C for 60 min. • 6) The HTRF […] signals were read using a BMG high-throughput drug-screening multi-mode microplate reader.
# The acetylation levels of the histones in the groups were analyzed by the GraphPad Prism 8 software. […]
# CYP2C8 = biological target: T2, CYP2C8 (Homo sapiens, UniProt P10632); test: Inhibitory effect on P450 enzymes in vitro (human liver microsomes), CYP2C8; format: in vitro ADME; details: probe paclitaxel, final concentration 10 µM, substrate paclitaxel, read-out: % inhibition rate CYP2C8 (paclitaxel)
# T2 construct: from tissue; host or cells: human liver microsomes
# T2 sequence (P10632 1-490): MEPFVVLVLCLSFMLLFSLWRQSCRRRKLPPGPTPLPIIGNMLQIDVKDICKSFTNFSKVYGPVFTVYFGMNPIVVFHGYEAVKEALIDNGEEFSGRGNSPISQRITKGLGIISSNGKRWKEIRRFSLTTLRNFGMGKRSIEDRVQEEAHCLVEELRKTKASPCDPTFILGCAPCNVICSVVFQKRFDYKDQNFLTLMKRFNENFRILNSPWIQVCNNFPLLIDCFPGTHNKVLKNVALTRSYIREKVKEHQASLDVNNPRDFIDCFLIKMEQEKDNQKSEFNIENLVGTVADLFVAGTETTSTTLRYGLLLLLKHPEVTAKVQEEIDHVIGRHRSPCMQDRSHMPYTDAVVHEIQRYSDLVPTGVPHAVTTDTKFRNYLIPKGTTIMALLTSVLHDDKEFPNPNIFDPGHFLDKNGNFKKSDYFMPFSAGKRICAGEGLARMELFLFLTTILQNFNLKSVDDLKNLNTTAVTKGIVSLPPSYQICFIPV
# Description: 1.1 Preparation of compounds: The compounds prepared in the examples were each dissolved in dimethylsulfoxide to give solutions at a concentration of 2 mmol/L.
# 1.2 Test methods: • 1) Incubation system: human liver microsomes, a MgCl2 solution, a phosphate buffer solution, and a substrate solution were each added a 96-well deep-well plate and mixed homogenously. In the final incubation system, the concentration of the human liver microsomes was 0.2 mg/mL, and the final concentrations of the MgCl2 solution and the phosphate buffer solution were 5 mM and 100 mM, respectively. • 2) 1 µL of the substrate solution was added to the incubation system, and the final concentrations of CYP1A2 phenacetin, 2C8 paclitaxel […], 2C19 mephenytoin, 2D6 midazolam, and 3A midazolam substrates were 40 µM (phenacetin), 5 µM (paclitaxel), 50 µM (mephenytoin), 10 µM (mephenytoin), 5 µM (midazolam), and 50 µM […], respectively. • 3) 1 µL of the example compound or vehicle (DMSO) was added to the incubation system, and the incubation system was pre-warmed for 5 min in a 37 °C water bath before starting the reaction with 20 µL of 10 mM NADPH solution.
# 1.3 Sample treatment: Within the designated time (20 min for phenacetin, 10 min for paclitaxel, 20 min for mephenytoin, 20 min for dextromethorphan, 5 min for midazolam, and 10 min for testosterone), 400 µL of methanol containing the internal standard was added to terminate the reaction, and the mixture was vortexed and mixed homogeneously. Then, the deep-well plate was centrifuged at 3220 g and 4 °C for 40 min. 100 µL of the supernatant was transferred into a new plate, and 150 µL of purified water was added. The mixture was mixed homogenously for LC-MS/MS analysis. Table 11. Inhibitory effects of some compounds in the examples on CYP enzymes
# T1 sequence (Q92993 whole entry): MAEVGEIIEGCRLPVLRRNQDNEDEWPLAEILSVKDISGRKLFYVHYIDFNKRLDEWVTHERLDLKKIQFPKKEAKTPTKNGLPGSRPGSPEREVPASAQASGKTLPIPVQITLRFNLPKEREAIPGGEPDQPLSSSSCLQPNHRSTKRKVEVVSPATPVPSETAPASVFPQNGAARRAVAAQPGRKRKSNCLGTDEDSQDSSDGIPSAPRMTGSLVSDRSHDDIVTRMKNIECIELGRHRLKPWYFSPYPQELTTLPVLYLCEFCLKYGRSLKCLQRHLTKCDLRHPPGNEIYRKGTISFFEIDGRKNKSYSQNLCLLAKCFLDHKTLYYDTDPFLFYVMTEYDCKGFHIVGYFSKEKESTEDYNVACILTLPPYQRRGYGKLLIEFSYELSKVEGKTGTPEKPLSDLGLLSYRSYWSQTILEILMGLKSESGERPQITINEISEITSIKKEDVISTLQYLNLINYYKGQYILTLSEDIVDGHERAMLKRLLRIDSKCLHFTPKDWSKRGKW
Compound,IC50 (KAT5) [nM],"inhibition at 10 min, 10 µM (CYP2C8) [%]"
"COc1cc2c(cc1S(=O)(=O)Nc1noc3cc(Cn4cccn4)nc(OC)c13)CCCC2 [Example 2, N-(6-((1H-Pyrazol-1-yl)methyl)-4-methoxyisoxazolo[4,5-c]pyridin-3-yl)-3-methoxy-5,6,7,8-tetrahydronaphthalene-2-sulfonamide]",219,16.4
"COc1ccc2ccoc2c1S(=O)(=O)Nc1noc2cc(Cn3cccn3)nc(OC)c12 [Example 10, N-(6-((1H-Pyrazol-1-yl)methyl)-4-methoxyisoxazolo[4,5-c]pyridin-3-yl)-6-methoxybenzofuran-7-sulfonamide]",66.4,3.71
"COc1cc2c(cc1S(=O)(=O)Nc1noc3cc(Cn4cccn4)nc(OC)c13)OCC2 [Example 59, N-(6-((1H-Pyrazol-1-yl)methyl)-4-methoxyisoxazolo[4,5-c]pyridin-3-yl)-5-methoxy-2,3-dihydrobenzofuran-6-sulfonamide]",171,2.08
